Values of other authors as cited in PubChem BioAssay AID1259409 (Chemical Carcinogenesis Research Information System (CCRIS), 2018).

Tested on: rodent chemically induced tumor inhibition, incidence and multiplicity
Assay: CCRIS tumor inhibitor studies

Row | Structure (SMILES) | outcome (Carcinogen: N-BUTYL-N-(4-HYDROXYBUTYL)NITROSAMINE, 3817-11-6, Dose [Inhibitor]: 0, 500 MG/KG BW/D FOR 24 WK BEGINNING 14 WK POST CARCINOGEN FIRST DOSE (STUDY DURATION: 38 WK), Route [Inhibitor]: ORAL, Species: RAT, Strain/Sex: WISTAR/MALE, FEMALE, Target Tissue: Type of Lesion: LIVER: TUMOR, Dose [Carcinogen]: 0.02% IN DRINKING WATER FOR FIRST 9 WK) | tumour outcome (control, treated, inhibition, significance) (Carcinogen: N-BUTYL-N-(4-HYDROXYBUTYL)NITROSAMINE, 3817-11-6, Dose [Inhibitor]: 0, 500 MG/KG BW/D FOR 24 WK BEGINNING 14 WK POST CARCINOGEN FIRST DOSE (STUDY DURATION: 38 WK), Route [Inhibitor]: ORAL, Species: RAT, Strain/Sex: WISTAR/MALE, FEMALE, Target Tissue: Type of Lesion: URINARY BLADDER: TUMOR, Dose [Carcinogen]: 0.02% IN DRINKING WATER FOR FIRST 9 WK) | tumour outcome (control, treated, inhibition, significance) (Carcinogen: N-ETHYL-N-NITROSOUREA, 759-73-9, Dose [Inhibitor]: 0, 500 MG/KG BW/D FOR 24 WK BEGINNING 14 WK POST CARCINOGEN FIRST DOSE (STUDY DURATION: 38 WK), Route [Inhibitor]: ORAL, Species: RAT, Strain/Sex: WISTAR/MALE, FEMALE, Target Tissue: Type of Lesion: AUDITORY SEBACEOUS GLAND: TUMOR, Dose [Carcinogen]: 20 MG/KG BW 1/WK FOR FIRST 10 WK) | tumour outcome (control, treated, inhibition, significance) (Carcinogen: N-ETHYL-N-NITROSOUREA, 759-73-9, Dose [Inhibitor]: 0, 500 MG/KG BW/D FOR 24 WK BEGINNING 14 WK POST CARCINOGEN FIRST DOSE (STUDY DURATION: 38 WK), Route [Inhibitor]: ORAL, Species: RAT, Strain/Sex: WISTAR/MALE, FEMALE, Target Tissue: Type of Lesion: HEART: TUMOR, Dose [Carcinogen]: 20 MG/KG BW 1/WK FOR FIRST 10 WK) | tumour outcome (control, treated, inhibition, significance) (Carcinogen: N-ETHYL-N-NITROSOUREA, 759-73-9, Dose [Inhibitor]: 0, 500 MG/KG BW/D FOR 24 WK BEGINNING 14 WK POST CARCINOGEN FIRST DOSE (STUDY DURATION: 38 WK), Route [Inhibitor]: ORAL, Species: RAT, Strain/Sex: WISTAR/MALE, FEMALE, Target Tissue: Type of Lesion: HEMATOLYMPHORETICULAR: TUMOR, Dose [Carcinogen]: 20 MG/KG BW 1/WK FOR FIRST 10 WK) | tumour outcome (control, treated, inhibition, significance) (Carcinogen: N-ETHYL-N-NITROSOUREA, 759-73-9, Dose [Inhibitor]: 0, 500 MG/KG BW/D FOR 24 WK BEGINNING 14 WK POST CARCINOGEN FIRST DOSE (STUDY DURATION: 38 WK), Route [Inhibitor]: ORAL, Species: RAT, Strain/Sex: WISTAR/MALE, FEMALE, Target Tissue: Type of Lesion: LARGE INTESTINE: TUMOR, Dose [Carcinogen]: 20 MG/KG BW 1/WK FOR FIRST 10 WK) | outcome (Carcinogen: N-ETHYL-N-NITROSOUREA, 759-73-9, Dose [Inhibitor]: 0, 500 MG/KG BW/D FOR 24 WK BEGINNING 14 WK POST CARCINOGEN FIRST DOSE (STUDY DURATION: 38 WK), Route [Inhibitor]: ORAL, Species: RAT, Strain/Sex: WISTAR/MALE, FEMALE, Target Tissue: Type of Lesion: LIVER: TUMOR, Dose [Carcinogen]: 20 MG/KG BW 1/WK FOR FIRST 10 WK) | tumour outcome (control, treated, inhibition, significance) (Carcinogen: N-ETHYL-N-NITROSOUREA, 759-73-9, Dose [Inhibitor]: 0, 500 MG/KG BW/D FOR 24 WK BEGINNING 14 WK POST CARCINOGEN FIRST DOSE (STUDY DURATION: 38 WK), Route [Inhibitor]: ORAL, Species: RAT, Strain/Sex: WISTAR/MALE, FEMALE, Target Tissue: Type of Lesion: MAMMARY GLAND: TUMOR, Dose [Carcinogen]: 20 MG/KG BW 1/WK FOR FIRST 10 WK) | outcome (Carcinogen: N-ETHYL-N-NITROSOUREA, 759-73-9, Dose [Inhibitor]: 0, 500 MG/KG BW/D FOR 24 WK BEGINNING 14 WK POST CARCINOGEN FIRST DOSE (STUDY DURATION: 38 WK), Route [Inhibitor]: ORAL, Species: RAT, Strain/Sex: WISTAR/MALE, FEMALE, Target Tissue: Type of Lesion: MESENTERY: TUMOR, Dose [Carcinogen]: 20 MG/KG BW 1/WK FOR FIRST 10 WK) | outcome (Carcinogen: N-ETHYL-N-NITROSOUREA, 759-73-9, Dose [Inhibitor]: 0, 500 MG/KG BW/D FOR 24 WK BEGINNING 14 WK POST CARCINOGEN FIRST DOSE (STUDY DURATION: 38 WK), Route [Inhibitor]: ORAL, Species: RAT, Strain/Sex: WISTAR/MALE, FEMALE, Target Tissue: Type of Lesion: NASAL CAVITY: TUMOR, Dose [Carcinogen]: 20 MG/KG BW 1/WK FOR FIRST 10 WK) | outcome (Carcinogen: N-ETHYL-N-NITROSOUREA, 759-73-9, Dose [Inhibitor]: 0, 500 MG/KG BW/D FOR 24 WK BEGINNING 14 WK POST CARCINOGEN FIRST DOSE (STUDY DURATION: 38 WK), Route [Inhibitor]: ORAL, Species: RAT, Strain/Sex: WISTAR/MALE, FEMALE, Target Tissue: Type of Lesion: PANCREAS: TUMOR, Dose [Carcinogen]: 20 MG/KG BW 1/WK FOR FIRST 10 WK) | tumour outcome (control, treated, inhibition, significance) (Carcinogen: N-ETHYL-N-NITROSOUREA, 759-73-9, Dose [Inhibitor]: 0, 500 MG/KG BW/D FOR 24 WK BEGINNING 14 WK POST CARCINOGEN FIRST DOSE (STUDY DURATION: 38 WK), Route [Inhibitor]: ORAL, Species: RAT, Strain/Sex: WISTAR/MALE, FEMALE, Target Tissue: Type of Lesion: SEMINAL VESICLES: TUMOR, Dose [Carcinogen]: 20 MG/KG BW 1/WK FOR FIRST 10 WK) | tumour outcome (control, treated, inhibition, significance) (Carcinogen: N-ETHYL-N-NITROSOUREA, 759-73-9, Dose [Inhibitor]: 0, 500 MG/KG BW/D FOR 24 WK BEGINNING 14 WK POST CARCINOGEN FIRST DOSE (STUDY DURATION: 38 WK), Route [Inhibitor]: ORAL, Species: RAT, Strain/Sex: WISTAR/MALE, FEMALE, Target Tissue: Type of Lesion: SKIN: TUMOR, Dose [Carcinogen]: 20 MG/KG BW 1/WK FOR FIRST 10 WK) | outcome (Carcinogen: N-ETHYL-N-NITROSOUREA, 759-73-9, Dose [Inhibitor]: 0, 500 MG/KG BW/D FOR 24 WK BEGINNING 14 WK POST CARCINOGEN FIRST DOSE (STUDY DURATION: 38 WK), Route [Inhibitor]: ORAL, Species: RAT, Strain/Sex: WISTAR/MALE, FEMALE, Target Tissue: Type of Lesion: SUBCUTIS: TUMOR, Dose [Carcinogen]: 20 MG/KG BW 1/WK FOR FIRST 10 WK) | tumour outcome (control, treated, inhibition, significance) (Carcinogen: 3-METHYLCHOLANTHRENE, 56-49-5, Dose [Inhibitor]: 1 UG IN ACETONE 2/WK FOR 23 WK BEGINNING 1 WK POST CARCINOGEN DOSE (STUDY DURATION: 24 WK), Route [Inhibitor]: DERMAL, Species: MOUSE, Strain/Sex: CD-1/MALE, Target Tissue: Type of Lesion: SKIN: TUMOR, Dose [Carcinogen]: 600 UG IN ACETONE ONCE, Promoter: NONE USED) | tumour outcome (control, treated, inhibition, significance) (Carcinogen: 3-METHYLCHOLANTHRENE, 56-49-5, Dose [Inhibitor]: 10 UG IN ACETONE 2/WK FOR 23 WK BEGINNING 1 WK POST CARCINOGEN DOSE (STUDY DURATION: 24 WK), Route [Inhibitor]: DERMAL, Species: MOUSE, Strain/Sex: CD-1/MALE, Target Tissue: Type of Lesion: SKIN: TUMOR, Dose [Carcinogen]: 600 UG IN ACETONE ONCE, Promoter: NONE USED) | tumour outcome (control, treated, inhibition, significance) (Carcinogen: 7,12-DIMETHYLBENZ[A]ANTHRACENE, 57-97-6, Dose [Inhibitor]: 0, 0.5 NMOL IN 200 µL ACETONE APPLIED 30 MIN PRIOR TO EACH PROMOTER DOSE 2/WK FOR 25 WK BEGINNING 1 WK POST CARCINOGEN D, Route [Inhibitor]: DERMAL, Species: MOUSE, Strain/Sex: CD-1/FEMALE, Target Tissue: Type of Lesion: SKIN: PAPILLOMA, Dose [Carcinogen]: 200 NMOL IN 200 µL ACETONE ONCE, Promoter: 12-O-TETRADECANOYLPHORBOL-13-ACETATE, 16561-29-8) | tumour outcome (control, treated, inhibition, significance) (Carcinogen: 7,12-DIMETHYLBENZ[A]ANTHRACENE, 57-97-6, Dose [Inhibitor]: 0, 0.5 NMOL IN 200 µL ACETONE APPLIED 30 MIN PRIOR TO EACH PROMOTER DOSE 2/WK FOR 25 WK BEGINNING 1 WK POST CARCINOGEN D, Route [Inhibitor]: DERMAL, Species: MOUSE, Strain/Sex: CD-1/FEMALE, Target Tissue: Type of Lesion: SKIN: PAPILLOMA, Dose [Carcinogen]: 200 NMOL IN 200 µL ACETONE ONCE, Promoter: MIREX, 2385-85-5) | tumour outcome (control, treated, inhibition, significance) (Carcinogen: 7,12-DIMETHYLBENZ[A]ANTHRACENE, 57-97-6, Dose [Inhibitor]: 0, 2 NMOL IN 200 µL ACETONE APPLIED 30 MIN PRIOR TO EACH PROMOTER DOSE 2/WK FOR 25 WK BEGINNING 1 WK POST CARCINOGEN DOS, Route [Inhibitor]: DERMAL, Species: MOUSE, Strain/Sex: CD-1/FEMALE, Target Tissue: Type of Lesion: SKIN: PAPILLOMA, Dose [Carcinogen]: 200 NMOL IN 200 µL ACETONE ONCE, Promoter: 12-O-TETRADECANOYLPHORBOL-13-ACETATE, 16561-29-8) | tumour outcome (control, treated, inhibition, significance) (Carcinogen: 7,12-DIMETHYLBENZ[A]ANTHRACENE, 57-97-6, Dose [Inhibitor]: 0, 2 NMOL IN 200 µL ACETONE APPLIED 30 MIN PRIOR TO EACH PROMOTER DOSE 2/WK FOR 25 WK BEGINNING 1 WK POST CARCINOGEN DOS, Route [Inhibitor]: DERMAL, Species: MOUSE, Strain/Sex: CD-1/FEMALE, Target Tissue: Type of Lesion: SKIN: PAPILLOMA, Dose [Carcinogen]: 200 NMOL IN 200 µL ACETONE ONCE, Promoter: MIREX, 2385-85-5)
1 | COc1c(N2C[C@@H]3CCCN[C@@H]3C2)c(F)cc2c(=O)c(C(=O)O)cn(C3CC3)c12 | 0%, 1/18 (6%), -100%, not significant | 13/18 (72%), 10/18 (56%), 22%, not significant | 9/26 (35%), 4/26 (15%), 57%, not significant | 1/26 (4%), 0%, 100%, not significant | 15/26 (58%), 13/26 (50%), 14%, not significant | 9/26 (35%), 7/26 (27%), 23%, not significant | 0%, 0%, 0%, not significant | 5/26 (19%), 2/26 (8%), 58%, not significant | 0%, 1/26 (4%), -100%, not significant | 0%, 0%, 0%, not significant | 0%, 0%, 0%, not significant | 1/26 (4%), 0%, 100%, not significant | 9/26 (35%), 10/26 (39%), -11%, not significant | 0%, 0%, 0%, not significant |  |  |  |  |  | 
2 | CC1(C)O[C@@H]2C[C@H]3[C@@H]4C[C@H](F)C5=CC(=O)C=C[C@]5(C)[C@@]4(F)[C@@H](O)C[C@]3(C)[C@]2(C(=O)CO)O1 |  |  |  |  |  |  |  |  |  |  |  |  |  |  | 10%, 5%, 50%, not calculated | 10%, 45%, -350%, not calculated | 90%, 40%, 56%, not calculated | 100%, 97%, 3%, not significant | 90%, 11%, 88%, not calculated | 100%, 92%, 8%, not calculated
